Results as given in the OligoGym collection.
HELM strings list units from the 5' end as sugar, base in round brackets, then linkage (d deoxyribose, r ribose, m 2'-O-methyl, p phosphodiester). Strings are as the collection lists them, not checked against the first reports. ss, as = sense and antisense strand; [fl2r] = 2'-fluoro

Settings: siRNA
Also: test system not given here.

Substance	target mRNA knockdown [%]
RNA1{r(A)p.r(G)p.r(U)p.r(C)p.r(C)p.r(C)p.r(U)p.r(G)p.r(G)p.r(A)p.r(G)p.r(C)p.r(C)p.r(U)p.m(U)p.m(A)p.r(A)p.r(A)p.r(C)p.r(T)p.r(T)}|RNA2{r(G)p.r(U)p.r(U)p.r(U)p.m(A)p.r(A)p.r(G)p.r(G)p.r(C)p.r(U)p.r(C)p.r(C)p.r(A)p.r(G)p.r(G)p.r(G)p.r(A)p.r(C)p.r(U)p.r(T)p.r(T)}$$$RNA1{StrandType:ss}|RNA2{StrandType:as}$	62
RNA1{r(A)p.r(G)p.r(U)p.r(U)p.r(U)p.r(C)p.[fl2r](U)p.[fl2r](A)p.r(G)p.r(G)p.r(G)p.r(C)p.r(C)p.r(G)p.r(U)p.r(G)p.r(G)p.r(C)p.r(C)p.r(T)p.r(T)}|RNA2{r(G)p.r(G)p.r(C)p.r(C)p.r(A)p.r(C)p.r(G)p.r(G)p.r(C)p.r(C)p.r(C)p.[fl2r](U)p.r(A)p.r(G)p.r(A)p.r(A)p.r(A)p.r(C)p.r(U)p.r(T)p.r(T)}$$$RNA1{StrandType:ss}|RNA2{StrandType:as}$	82
RNA1{r(A)p.r(G)p.r(U)p.r(U)p.r(U)p.r(C)p.[fl2r](U)p.r(A)p.r(G)p.r(G)p.r(G)p.r(C)p.r(C)p.r(G)p.[fl2r](U)p.r(G)p.r(G)p.r(C)p.r(C)p.r(T)p.r(T)}|RNA2{r(G)p.r(G)p.r(C)p.[fl2r](C)p.r(A)p.r(C)p.r(G)p.[fl2r](G)p.r(C)p.r(C)p.r(C)p.[fl2r](U)p.r(A)p.r(G)p.r(A)p.r(A)p.r(A)p.r(C)p.r(U)p.r(T)p.r(T)}$$$RNA1{StrandType:ss}|RNA2{StrandType:as}$	85
RNA1{r(A)p.r(U)p.m(A)p.r(C)p.r(U)p.r(U)p.r(G)p.r(G)p.r(C)p.r(G)p.r(G)p.r(G)p.r(C)p.r(U)p.r(C)p.r(U)p.r(U)p.r(U)p.r(C)p.r(T)p.r(T)}|RNA2{r(G)p.r(A)p.r(A)p.r(A)p.r(G)p.r(A)p.r(G)p.r(C)p.r(C)p.r(C)p.r(G)p.r(C)p.m(C)p.r(A)p.r(A)p.r(G)p.r(U)p.r(A)p.r(U)p.r(T)p.r(T)}$$$RNA1{StrandType:ss}|RNA2{StrandType:as}$	72
RNA1{r(A)p.r(U)p.m(C)p.r(A)p.m(C)p.r(A)p.r(A)p.r(A)p.r(C)p.r(C)p.r(C)p.r(C)p.m(U)p.r(A)p.r(G)p.r(A)p.r(G)p.r(G)p.r(G)p.r(T)p.r(T)}|RNA2{r(C)p.r(C)p.r(C)p.r(U)p.r(C)p.m(U)p.r(A)p.m(G)p.r(G)p.r(G)p.r(G)p.r(U)p.r(U)p.r(U)p.r(G)p.m(U)p.r(G)p.r(A)p.r(U)p.r(T)p.r(T)}$$$RNA1{StrandType:ss}|RNA2{StrandType:as}$	27
RNA1{r(A)p.r(U)p.m(C)p.r(A)p.m(C)p.r(A)p.r(A)p.r(A)p.r(C)p.r(C)p.r(C)p.r(C)p.m(U)p.r(A)p.r(G)p.r(A)p.r(G)p.r(G)p.r(G)p.r(T)p.r(T)}|RNA2{r(C)p.r(C)p.r(C)p.r(U)p.r(C)p.m(U)p.r(A)p.r(G)p.r(G)p.r(G)p.r(G)p.r(U)p.r(U)p.m(U)p.r(G)p.m(U)p.r(G)p.r(A)p.r(U)p.r(T)p.r(T)}$$$RNA1{StrandType:ss}|RNA2{StrandType:as}$	75
RNA1{r(A)p.r(U)p.m(C)p.r(A)p.m(C)p.r(A)p.r(A)p.r(A)p.r(C)p.r(C)p.r(C)p.r(C)p.r(U)p.r(A)p.r(G)p.r(A)p.r(G)p.r(G)p.r(G)p.r(T)p.r(T)}|RNA2{r(C)p.r(C)p.r(C)p.r(U)p.r(C)p.m(U)p.r(A)p.r(G)p.r(G)p.r(G)p.r(G)p.r(U)p.r(U)p.r(U)p.r(G)p.m(U)p.r(G)p.r(A)p.r(U)p.r(T)p.r(T)}$$$RNA1{StrandType:ss}|RNA2{StrandType:as}$	75
RNA1{r(A)p.r(U)p.m(C)p.r(A)p.r(G)p.r(A)p.r(G)p.r(G)p.r(G)p.r(A)p.r(G)p.r(G)p.r(U)p.r(C)p.r(U)p.m(U)p.r(A)p.r(G)p.r(A)p.r(T)p.r(T)}|RNA2{r(U)p.r(C)p.m(U)p.r(A)p.r(A)p.r(G)p.r(A)p.r(C)p.r(C)p.r(U)p.r(C)p.r(C)p.r(C)p.r(U)p.r(C)p.m(U)p.r(G)p.r(A)p.r(U)p.r(T)p.r(T)}$$$RNA1{StrandType:ss}|RNA2{StrandType:as}$	68
RNA1{r(A)p.r(U)p.r(C)p.m(G)p.r(A)p.r(C)p.r(C)p.m(U)p.r(G)p.r(A)p.r(A)p.r(G)p.r(G)p.r(A)p.r(G)p.m(U)p.r(A)p.r(C)p.r(G)p.r(T)p.r(T)}|RNA2{r(C)p.r(G)p.m(U)p.r(A)p.r(C)p.r(U)p.r(C)p.r(C)p.r(U)p.r(U)p.m(C)p.r(A)p.r(G)p.r(G)p.r(U)p.r(C)p.r(G)p.r(A)p.r(U)p.r(T)p.r(T)}$$$RNA1{StrandType:ss}|RNA2{StrandType:as}$	29
RNA1{r(A)p.r(U)p.r(C)p.m(U)p.r(A)p.r(C)p.r(C)p.m(C)p.r(A)p.r(G)p.r(C)p.r(U)p.r(C)p.m(U)p.r(C)p.r(C)p.r(C)p.r(U)p.r(U)p.r(T)p.r(T)}|RNA2{r(A)p.r(A)p.r(G)p.r(G)p.r(G)p.r(A)p.r(G)p.r(A)p.r(G)p.r(C)p.m(U)p.r(G)p.r(G)p.r(G)p.m(U)p.r(A)p.r(G)p.r(A)p.r(U)p.r(T)p.r(T)}$$$RNA1{StrandType:ss}|RNA2{StrandType:as}$	75
RNA1{r(A)p.r(U)p.r(C)p.m(U)p.r(A)p.r(C)p.r(C)p.r(C)p.r(A)p.r(G)p.r(C)p.r(U)p.r(C)p.r(U)p.r(C)p.r(C)p.r(C)p.r(U)p.r(U)p.r(T)p.r(T)}|RNA2{r(A)p.r(A)p.r(G)p.r(G)p.r(G)p.r(A)p.r(G)p.r(A)p.r(G)p.r(C)p.r(U)p.r(G)p.r(G)p.r(G)p.m(U)p.r(A)p.r(G)p.r(A)p.r(U)p.r(T)p.r(T)}$$$RNA1{StrandType:ss}|RNA2{StrandType:as}$	77
RNA1{r(A)p.r(U)p.r(C)p.r(A)p.r(C)p.r(A)p.r(A)p.r(A)p.r(C)p.r(C)p.r(C)p.r(C)p.m(U)p.r(A)p.r(G)p.r(A)p.r(G)p.r(G)p.r(G)p.r(T)p.r(T)}|RNA2{r(C)p.r(C)p.r(C)p.r(U)p.r(C)p.m(U)p.r(A)p.r(G)p.r(G)p.r(G)p.r(G)p.r(U)p.r(U)p.r(U)p.r(G)p.r(U)p.r(G)p.r(A)p.r(U)p.r(T)p.r(T)}$$$RNA1{StrandType:ss}|RNA2{StrandType:as}$	29
RNA1{r(A)p.r(U)p.r(C)p.r(A)p.r(G)p.r(A)p.r(G)p.r(G)p.r(G)p.r(A)p.r(G)p.r(G)p.r(U)p.r(C)p.r(U)p.m(U)p.r(A)p.r(G)p.r(A)p.r(T)p.r(T)}|RNA2{r(U)p.r(C)p.m(U)p.r(A)p.r(A)p.r(G)p.r(A)p.r(C)p.r(C)p.r(U)p.r(C)p.r(C)p.r(C)p.r(U)p.r(C)p.r(U)p.r(G)p.r(A)p.r(U)p.r(T)p.r(T)}$$$RNA1{StrandType:ss}|RNA2{StrandType:as}$	69
RNA1{r(A)p.r(U)p.r(C)p.r(C)p.m(U)p.r(G)p.m(C)p.r(A)p.r(G)p.r(A)p.r(A)p.m(G)p.r(A)p.r(A)p.r(G)p.r(C)p.r(C)p.r(U)p.r(C)p.r(T)p.r(T)}|RNA2{r(G)p.r(A)p.r(G)p.r(G)p.r(C)p.r(U)p.r(U)p.r(C)p.r(U)p.r(U)p.r(C)p.m(U)p.r(G)p.m(C)p.r(A)p.r(G)p.r(G)p.r(A)p.r(U)p.r(T)p.r(T)}$$$RNA1{StrandType:ss}|RNA2{StrandType:as}$	50
RNA1{r(A)p.r(U)p.r(C)p.r(C)p.m(U)p.r(G)p.m(C)p.r(A)p.r(G)p.r(A)p.r(A)p.r(G)p.r(A)p.r(A)p.r(G)p.r(C)p.r(C)p.r(U)p.r(C)p.r(T)p.r(T)}|RNA2{r(G)p.r(A)p.r(G)p.r(G)p.r(C)p.r(U)p.r(U)p.r(C)p.r(U)p.r(U)p.r(C)p.r(U)p.r(G)p.r(C)p.r(A)p.r(G)p.r(G)p.r(A)p.r(U)p.r(T)p.r(T)}$$$RNA1{StrandType:ss}|RNA2{StrandType:as}$	74
RNA1{r(A)p.r(U)p.r(C)p.r(G)p.r(A)p.r(C)p.r(C)p.[fl2r](U)p.r(G)p.r(A)p.r(A)p.r(G)p.r(G)p.r(A)p.r(G)p.[fl2r](U)p.r(A)p.r(C)p.r(G)p.r(T)p.r(T)}|RNA2{r(C)p.r(G)p.[fl2r](U)p.r(A)p.r(C)p.r(U)p.r(C)p.r(C)p.r(U)p.r(U)p.[fl2r](C)p.r(A)p.r(G)p.r(G)p.r(U)p.r(C)p.r(G)p.r(A)p.r(U)p.r(T)p.r(T)}$$$RNA1{StrandType:ss}|RNA2{StrandType:as}$	46
RNA1{r(A)p.r(U)p.r(C)p.r(G)p.r(A)p.r(C)p.r(C)p.m(U)p.r(G)p.r(A)p.r(A)p.r(G)p.r(G)p.r(A)p.r(G)p.m(U)p.r(A)p.r(C)p.r(G)p.r(T)p.r(T)}|RNA2{r(C)p.r(G)p.m(U)p.r(A)p.r(C)p.r(U)p.r(C)p.r(C)p.r(U)p.r(U)p.r(C)p.r(A)p.r(G)p.r(G)p.r(U)p.r(C)p.r(G)p.r(A)p.r(U)p.r(T)p.r(T)}$$$RNA1{StrandType:ss}|RNA2{StrandType:as}$	30
RNA1{r(A)p.r(U)p.r(C)p.r(G)p.r(A)p.r(C)p.r(C)p.r(U)p.r(G)p.r(A)p.r(A)p.r(G)p.r(G)p.r(A)p.r(G)p.[fl2r](U)p.r(A)p.r(C)p.r(G)p.r(T)p.r(T)}|RNA2{r(C)p.r(G)p.r(U)p.[fl2r](A)p.r(C)p.r(U)p.r(C)p.r(C)p.r(U)p.r(U)p.r(C)p.r(A)p.r(G)p.r(G)p.r(U)p.r(C)p.r(G)p.r(A)p.r(U)p.r(T)p.r(T)}$$$RNA1{StrandType:ss}|RNA2{StrandType:as}$	82
RNA1{r(A)p.r(U)p.r(C)p.r(G)p.r(C)p.[fl2r](U)p.r(G)p.r(C)p.[fl2r](U)p.r(C)p.r(C)p.[fl2r](U)p.r(C)p.r(C)p.r(U)p.r(C)p.r(C)p.r(U)p.r(C)p.r(T)p.r(T)}|RNA2{r(G)p.r(A)p.r(G)p.r(G)p.r(A)p.r(G)p.r(G)p.r(A)p.r(G)p.r(G)p.r(A)p.r(G)p.[fl2r](C)p.r(A)p.r(G)p.r(C)p.r(G)p.r(A)p.r(U)p.r(T)p.r(T)}$$$RNA1{StrandType:ss}|RNA2{StrandType:as}$	69
RNA1{r(A)p.r(U)p.r(C)p.r(G)p.r(C)p.[fl2r](U)p.r(G)p.r(C)p.r(U)p.r(C)p.r(C)p.r(U)p.r(C)p.r(C)p.r(U)p.r(C)p.r(C)p.r(U)p.r(C)p.r(T)p.r(T)}|RNA2{r(G)p.r(A)p.r(G)p.r(G)p.r(A)p.r(G)p.r(G)p.r(A)p.r(G)p.r(G)p.r(A)p.r(G)p.[fl2r](C)p.r(A)p.r(G)p.r(C)p.r(G)p.r(A)p.r(U)p.r(T)p.r(T)}$$$RNA1{StrandType:ss}|RNA2{StrandType:as}$	71
